{
  "source": "paper PMC8401933",
  "about": "(Molecules, 2021)",
  "assay_in_all_cases": "KINOMEscan binding",
  "key": {"TEC": {"molecular_target": "T1, TEC (Homo sapiens, UniProt P42680)", "T1 construct": "purchased Eurofins DiscoverX KINOMEscan", "settings": "read-out: Percent Control"}, "SgK110": {"molecular_target": "T2, SgK110 (Homo sapiens, UniProt P0C264)", "T2 construct": "purchased Eurofins DiscoverX KINOMEscan", "settings": "read-out: Percent Control"}, "MAP4K3": {"molecular_target": "T3, MAP4K3 (Homo sapiens, UniProt Q8IVH8)", "T3 construct": "purchased Eurofins DiscoverX KINOMEscan", "settings": "read-out: Percent Control"}, "FLT3(ITD)": {"system": "FLT3(ITD)", "set-up": "species or system human", "settings": "10 μM"}, "PCTK3": {"molecular_target": "T4, PCTK3 (Homo sapiens, UniProt Q07002)", "T4 construct": "purchased Eurofins DiscoverX KINOMEscan", "settings": "read-out: Percent Control"}, "PIKFYVE": {"molecular_target": "T5, PIKFYVE (Homo sapiens, UniProt Q9Y2I7)", "T5 construct": "purchased Eurofins DiscoverX KINOMEscan", "settings": "read-out: Percent Control"}, "SYK": {"molecular_target": "T6, SYK (Homo sapiens, UniProt P43405)", "T6 construct": "purchased Eurofins DiscoverX KINOMEscan", "settings": "read-out: Percent Control"}, "CAMKK2": {"molecular_target": "T7, CAMKK2 (Homo sapiens, UniProt Q96RR4)", "T7 construct": "purchased Eurofins DiscoverX KINOMEscan", "settings": "read-out: Percent Control"}, "MST1": {"molecular_target": "T8, MST1 (Homo sapiens, UniProt Q13043)", "T8 construct": "purchased Eurofins DiscoverX KINOMEscan", "settings": "read-out: Percent Control"}, "PAK1": {"molecular_target": "T9, PAK1 (Homo sapiens, UniProt Q13153)", "T9 construct": "purchased Eurofins DiscoverX KINOMEscan", "settings": "read-out: Percent Control"}, "OSR1": {"molecular_target": "T10, OSR1 (Homo sapiens, UniProt O95747)", "T10 construct": "purchased Eurofins DiscoverX KINOMEscan", "settings": "read-out: Percent Control"}, "SGK2": {"molecular_target": "T11, SGK2 (Homo sapiens, UniProt Q9HBY8)", "T11 construct": "purchased Eurofins DiscoverX KINOMEscan", "settings": "read-out: Percent Control"}, "PLK3": {"molecular_target": "T12, PLK3 (Homo sapiens, UniProt Q9H4B4)", "T12 construct": "purchased Eurofins DiscoverX KINOMEscan", "settings": "read-out: Percent Control"}, "MEK6": {"molecular_target": "T13, MEK6 (Homo sapiens, UniProt P52564)", "T13 construct": "purchased Eurofins DiscoverX KINOMEscan", "settings": "read-out: Percent Control"}, "BMPR2": {"molecular_target": "T14, BMPR2 (Homo sapiens, UniProt Q13873)", "T14 construct": "purchased Eurofins DiscoverX KINOMEscan", "settings": "read-out: Percent Control"}, "PIK3CA": {"molecular_target": "T15, PIK3CA (Homo sapiens, UniProt P42336)", "T15 construct": "purchased Eurofins DiscoverX KINOMEscan", "settings": "read-out: Percent Control"}, "[1]": {"molecular_target": "T16, ABL1(E255K)-phosphorylated (Homo sapiens, UniProt P00519, E255K)", "T16 construct": "purchased Eurofins DiscoverX KINOMEscan", "T16 sequence (P00519 whole entry E255K)": "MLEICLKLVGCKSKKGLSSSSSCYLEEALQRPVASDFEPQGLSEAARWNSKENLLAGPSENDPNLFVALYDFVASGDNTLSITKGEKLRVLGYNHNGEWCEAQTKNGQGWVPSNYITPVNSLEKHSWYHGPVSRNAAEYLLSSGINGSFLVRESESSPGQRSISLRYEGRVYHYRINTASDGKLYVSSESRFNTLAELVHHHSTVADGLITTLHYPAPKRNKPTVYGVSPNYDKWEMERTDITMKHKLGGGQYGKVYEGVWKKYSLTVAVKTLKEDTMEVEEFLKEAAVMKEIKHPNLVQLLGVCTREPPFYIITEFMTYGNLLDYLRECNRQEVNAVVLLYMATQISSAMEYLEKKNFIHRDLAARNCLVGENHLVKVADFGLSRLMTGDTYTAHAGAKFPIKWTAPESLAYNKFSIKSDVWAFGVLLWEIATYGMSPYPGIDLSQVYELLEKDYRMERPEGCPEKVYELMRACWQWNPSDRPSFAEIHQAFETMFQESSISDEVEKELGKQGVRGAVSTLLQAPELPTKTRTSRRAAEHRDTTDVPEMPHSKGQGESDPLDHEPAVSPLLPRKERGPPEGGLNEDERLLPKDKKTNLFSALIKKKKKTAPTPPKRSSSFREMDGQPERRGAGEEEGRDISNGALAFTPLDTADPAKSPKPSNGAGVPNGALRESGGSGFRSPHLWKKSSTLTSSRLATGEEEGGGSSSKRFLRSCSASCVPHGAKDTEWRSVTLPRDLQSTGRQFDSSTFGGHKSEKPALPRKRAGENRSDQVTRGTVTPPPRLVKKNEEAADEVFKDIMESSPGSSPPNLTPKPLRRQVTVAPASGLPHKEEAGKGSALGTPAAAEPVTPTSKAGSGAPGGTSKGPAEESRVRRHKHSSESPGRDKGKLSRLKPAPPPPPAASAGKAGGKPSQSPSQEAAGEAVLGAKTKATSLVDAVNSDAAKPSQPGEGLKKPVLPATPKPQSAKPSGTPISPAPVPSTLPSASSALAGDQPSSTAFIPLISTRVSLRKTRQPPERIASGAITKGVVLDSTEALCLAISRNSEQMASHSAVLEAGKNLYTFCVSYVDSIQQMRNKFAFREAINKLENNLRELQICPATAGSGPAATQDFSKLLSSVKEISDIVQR", "settings": "read-out: Percent Control"}, "MAP3K1": {"molecular_target": "T17, MAP3K1 (Homo sapiens, UniProt Q13233)", "T17 construct": "purchased Eurofins DiscoverX KINOMEscan", "settings": "read-out: Percent Control"}, "AMPK-alpha1": {"molecular_target": "T18, AMPK-alpha1 (Homo sapiens, UniProt Q13131)", "T18 construct": "purchased Eurofins DiscoverX KINOMEscan", "settings": "read-out: Percent Control"}, "KIT(D816H)": {"molecular_target": "T19, KIT(D816H) (Homo sapiens, UniProt P10721, D816H)", "T19 construct": "purchased Eurofins DiscoverX KINOMEscan", "settings": "read-out: Percent Control"}, "FER": {"molecular_target": "T20, FER (Homo sapiens, UniProt P16591)", "T20 construct": "purchased Eurofins DiscoverX KINOMEscan", "settings": "read-out: Percent Control"}, "LATS2": {"molecular_target": "T21, LATS2 (Homo sapiens, UniProt Q9NRM7)", "T21 construct": "purchased Eurofins DiscoverX KINOMEscan", "settings": "read-out: Percent Control"}, "GRK7": {"molecular_target": "T22, GRK7 (Homo sapiens, UniProt Q8WTQ7)", "T22 construct": "purchased Eurofins DiscoverX KINOMEscan", "settings": "read-out: Percent Control"}, "PRKD2": {"molecular_target": "T23, PRKD2 (Homo sapiens, UniProt Q9BZL6)", "T23 construct": "purchased Eurofins DiscoverX KINOMEscan", "settings": "read-out: Percent Control"}, "GRK2": {"molecular_target": "T24, GRK2 (Homo sapiens, UniProt P25098)", "T24 construct": "purchased Eurofins DiscoverX KINOMEscan", "settings": "read-out: Percent Control"}, "ZAP70": {"molecular_target": "T25, ZAP70 (Homo sapiens, UniProt P43403)", "T25 construct": "purchased Eurofins DiscoverX KINOMEscan", "settings": "read-out: Percent Control"}, "MYLK2": {"molecular_target": "T26, MYLK2 (Homo sapiens, UniProt Q9H1R3)", "T26 construct": "purchased Eurofins DiscoverX KINOMEscan", "settings": "read-out: Percent Control"}, "PIK3CA(E542K)": {"molecular_target": "T27, PIK3CA(E542K) (Homo sapiens, UniProt P42336, E542K)", "T27 construct": "purchased Eurofins DiscoverX KINOMEscan", "settings": "read-out: Percent Control"}, "CAMK2G": {"molecular_target": "T28, CAMK2G (Homo sapiens, UniProt Q13555)", "T28 construct": "purchased Eurofins DiscoverX KINOMEscan", "T28 sequence (Q13555 whole entry)": "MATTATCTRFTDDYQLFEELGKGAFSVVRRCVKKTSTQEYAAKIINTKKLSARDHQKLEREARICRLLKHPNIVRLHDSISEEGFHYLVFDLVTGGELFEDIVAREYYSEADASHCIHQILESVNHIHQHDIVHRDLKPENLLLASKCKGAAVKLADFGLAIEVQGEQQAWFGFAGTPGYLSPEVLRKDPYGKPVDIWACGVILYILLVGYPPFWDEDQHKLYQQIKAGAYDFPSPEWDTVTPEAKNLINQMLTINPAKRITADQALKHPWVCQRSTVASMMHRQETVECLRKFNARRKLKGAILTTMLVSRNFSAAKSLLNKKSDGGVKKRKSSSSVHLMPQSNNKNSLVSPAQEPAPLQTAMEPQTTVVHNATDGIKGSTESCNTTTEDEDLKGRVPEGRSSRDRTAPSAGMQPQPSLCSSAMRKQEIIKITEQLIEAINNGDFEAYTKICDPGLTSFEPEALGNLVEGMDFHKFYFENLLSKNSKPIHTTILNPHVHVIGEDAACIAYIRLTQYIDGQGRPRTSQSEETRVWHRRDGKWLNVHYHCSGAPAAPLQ", "settings": "read-out: Percent Control"}, "ERBB3": {"molecular_target": "T29, ERBB3 (Homo sapiens, UniProt P21860)", "T29 construct": "purchased Eurofins DiscoverX KINOMEscan", "settings": "read-out: Percent Control"}, "NEK5": {"molecular_target": "T30, NEK5 (Homo sapiens, UniProt Q6P3R8)", "T30 construct": "purchased Eurofins DiscoverX KINOMEscan", "settings": "read-out: Percent Control"}, "PIK3CB": {"molecular_target": "T31, PIK3CB (Homo sapiens, UniProt P42338)", "T31 construct": "purchased Eurofins DiscoverX KINOMEscan", "T31 sequence (P42338 whole entry)": "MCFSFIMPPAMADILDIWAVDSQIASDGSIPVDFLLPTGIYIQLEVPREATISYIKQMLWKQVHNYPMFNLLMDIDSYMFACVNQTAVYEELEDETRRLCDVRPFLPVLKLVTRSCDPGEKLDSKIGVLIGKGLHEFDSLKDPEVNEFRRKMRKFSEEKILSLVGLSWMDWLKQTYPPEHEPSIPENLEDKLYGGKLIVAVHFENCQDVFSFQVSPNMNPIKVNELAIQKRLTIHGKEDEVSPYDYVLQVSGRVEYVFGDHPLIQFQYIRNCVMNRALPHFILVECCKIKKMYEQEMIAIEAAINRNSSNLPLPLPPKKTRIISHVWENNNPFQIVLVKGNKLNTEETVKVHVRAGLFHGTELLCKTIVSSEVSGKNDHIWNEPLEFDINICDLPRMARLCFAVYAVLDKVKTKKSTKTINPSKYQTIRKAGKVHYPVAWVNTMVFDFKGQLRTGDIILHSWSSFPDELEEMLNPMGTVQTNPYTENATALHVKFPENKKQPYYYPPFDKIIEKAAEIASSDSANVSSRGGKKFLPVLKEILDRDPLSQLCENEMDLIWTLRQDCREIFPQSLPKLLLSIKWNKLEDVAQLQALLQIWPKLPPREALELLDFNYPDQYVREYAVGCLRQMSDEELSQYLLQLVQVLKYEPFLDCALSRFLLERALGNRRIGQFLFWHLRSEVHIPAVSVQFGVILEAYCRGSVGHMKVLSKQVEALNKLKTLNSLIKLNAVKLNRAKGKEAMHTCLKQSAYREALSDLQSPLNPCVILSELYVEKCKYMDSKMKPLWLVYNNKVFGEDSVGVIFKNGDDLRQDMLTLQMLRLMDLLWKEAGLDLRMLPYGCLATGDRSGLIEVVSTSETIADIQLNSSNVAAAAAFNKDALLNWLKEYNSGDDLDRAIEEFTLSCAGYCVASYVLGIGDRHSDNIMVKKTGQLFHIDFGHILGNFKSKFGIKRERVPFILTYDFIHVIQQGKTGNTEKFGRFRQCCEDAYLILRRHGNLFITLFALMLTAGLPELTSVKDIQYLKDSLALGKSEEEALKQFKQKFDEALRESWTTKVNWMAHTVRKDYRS", "settings": "read-out: Percent Control"}, "CDKL1": {"molecular_target": "T32, CDKL1 (Homo sapiens, UniProt Q00532)", "T32 construct": "purchased Eurofins DiscoverX KINOMEscan", "T32 sequence (Q00532 whole entry)": "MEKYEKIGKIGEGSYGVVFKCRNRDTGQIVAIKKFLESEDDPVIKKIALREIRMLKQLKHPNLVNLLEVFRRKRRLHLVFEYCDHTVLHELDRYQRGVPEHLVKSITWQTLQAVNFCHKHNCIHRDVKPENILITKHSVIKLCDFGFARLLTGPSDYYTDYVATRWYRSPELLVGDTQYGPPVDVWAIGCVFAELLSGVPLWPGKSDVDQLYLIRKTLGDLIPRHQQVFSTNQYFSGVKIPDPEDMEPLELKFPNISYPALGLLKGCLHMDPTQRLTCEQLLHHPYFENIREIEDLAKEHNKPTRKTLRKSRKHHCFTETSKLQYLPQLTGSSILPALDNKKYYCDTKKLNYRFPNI", "settings": "read-out: Percent Control"}, "SRPK2": {"molecular_target": "T33, SRPK2 (Homo sapiens, UniProt P78362)", "T33 construct": "purchased Eurofins DiscoverX KINOMEscan", "T33 sequence (P78362 whole entry)": "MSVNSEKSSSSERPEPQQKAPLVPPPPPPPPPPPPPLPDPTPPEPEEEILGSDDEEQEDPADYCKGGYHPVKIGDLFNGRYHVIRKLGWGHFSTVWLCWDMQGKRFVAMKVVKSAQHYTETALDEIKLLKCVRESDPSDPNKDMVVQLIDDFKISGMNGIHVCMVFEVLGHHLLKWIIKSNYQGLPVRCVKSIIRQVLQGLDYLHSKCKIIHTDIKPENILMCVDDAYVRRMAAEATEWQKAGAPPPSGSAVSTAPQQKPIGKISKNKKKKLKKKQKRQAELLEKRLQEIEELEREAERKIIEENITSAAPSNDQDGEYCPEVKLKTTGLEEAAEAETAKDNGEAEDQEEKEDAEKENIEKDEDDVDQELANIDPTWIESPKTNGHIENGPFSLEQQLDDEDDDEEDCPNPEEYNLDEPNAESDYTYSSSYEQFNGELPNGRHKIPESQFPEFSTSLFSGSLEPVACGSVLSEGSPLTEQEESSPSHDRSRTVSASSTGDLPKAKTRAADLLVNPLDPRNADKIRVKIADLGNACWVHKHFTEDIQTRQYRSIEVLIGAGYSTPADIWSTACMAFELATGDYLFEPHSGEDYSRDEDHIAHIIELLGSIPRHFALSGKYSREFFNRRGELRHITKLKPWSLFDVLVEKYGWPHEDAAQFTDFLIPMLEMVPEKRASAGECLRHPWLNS", "settings": "read-out: Percent Control"}, "MAP3K3": {"molecular_target": "T34, MAP3K3 (Homo sapiens, UniProt Q99759)", "T34 construct": "purchased Eurofins DiscoverX KINOMEscan", "T34 sequence (Q99759 whole entry)": "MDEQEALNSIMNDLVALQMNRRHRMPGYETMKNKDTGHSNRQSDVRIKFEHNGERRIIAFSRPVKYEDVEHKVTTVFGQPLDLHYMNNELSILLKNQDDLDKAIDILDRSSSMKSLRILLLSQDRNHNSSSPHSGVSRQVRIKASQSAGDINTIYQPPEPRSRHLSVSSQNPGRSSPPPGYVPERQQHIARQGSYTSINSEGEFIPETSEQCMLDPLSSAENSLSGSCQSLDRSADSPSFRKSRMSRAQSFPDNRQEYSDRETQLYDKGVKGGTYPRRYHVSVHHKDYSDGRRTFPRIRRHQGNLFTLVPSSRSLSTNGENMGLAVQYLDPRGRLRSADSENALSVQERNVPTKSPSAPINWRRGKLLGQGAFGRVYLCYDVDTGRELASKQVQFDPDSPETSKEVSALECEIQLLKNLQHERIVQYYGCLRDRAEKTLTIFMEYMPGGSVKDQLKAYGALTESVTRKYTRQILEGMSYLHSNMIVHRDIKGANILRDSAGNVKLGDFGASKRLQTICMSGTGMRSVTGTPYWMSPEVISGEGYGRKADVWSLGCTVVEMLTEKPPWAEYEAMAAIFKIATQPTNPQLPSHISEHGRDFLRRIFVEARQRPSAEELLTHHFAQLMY", "settings": "read-out: Percent Control"}, "PRKR": {"molecular_target": "T35, PRKR (Homo sapiens, UniProt P19525)", "T35 construct": "purchased Eurofins DiscoverX KINOMEscan", "T35 sequence (P19525 whole entry)": "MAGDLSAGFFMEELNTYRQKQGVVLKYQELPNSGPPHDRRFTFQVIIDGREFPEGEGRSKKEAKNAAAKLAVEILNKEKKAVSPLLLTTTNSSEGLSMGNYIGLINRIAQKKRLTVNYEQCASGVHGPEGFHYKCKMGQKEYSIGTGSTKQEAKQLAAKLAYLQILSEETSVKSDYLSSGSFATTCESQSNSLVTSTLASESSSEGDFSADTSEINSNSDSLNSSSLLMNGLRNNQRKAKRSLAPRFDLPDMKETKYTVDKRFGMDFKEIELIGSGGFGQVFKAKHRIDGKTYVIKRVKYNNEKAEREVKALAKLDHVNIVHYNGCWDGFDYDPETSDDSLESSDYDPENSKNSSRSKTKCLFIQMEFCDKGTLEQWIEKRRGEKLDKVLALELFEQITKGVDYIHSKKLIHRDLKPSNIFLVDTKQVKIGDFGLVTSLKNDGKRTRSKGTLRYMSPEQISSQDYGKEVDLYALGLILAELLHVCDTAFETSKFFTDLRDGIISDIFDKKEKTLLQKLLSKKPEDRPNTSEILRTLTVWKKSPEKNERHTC", "settings": "read-out: Percent Control"}},
  "data": [
    {"smiles": "CC(C)NC(=O)COc1cccc(-c2nc(Nc3ccc4[nH]ncc4c3)c3ccccc3n2)c1", "note": "[KD025, 2-(3-(4-((1H-indazol-5-yl)amino)quinazolin-2-yl)phenoxy)-N-isopropylacetamide]", "values": [
      {"measurement": "remaining binding at 10 µM", "setting": "TEC", "value": 95, "unit": "%"},
      {"measurement": "remaining binding at 10 µM", "setting": "SgK110", "value": 100, "unit": "%"},
      {"measurement": "remaining binding at 10 µM", "setting": "MAP4K3", "value": 78, "unit": "%"},
      {"measurement": "Percent Control", "setting": "FLT3(ITD)", "value": 31, "unit": "%"},
      {"measurement": "remaining binding at 10 µM", "setting": "PCTK3", "value": 81, "unit": "%"},
      {"measurement": "remaining binding at 10 µM", "setting": "PIKFYVE", "value": 12, "unit": "%"},
      {"measurement": "remaining binding at 10 µM", "setting": "SYK", "value": 100, "unit": "%"},
      {"measurement": "remaining binding at 10 µM", "setting": "CAMKK2", "value": 100, "unit": "%"},
      {"measurement": "remaining binding at 10 µM", "setting": "MST1", "value": 82, "unit": "%"},
      {"measurement": "remaining binding at 10 µM", "setting": "PAK1", "value": 56, "unit": "%"},
      {"measurement": "remaining binding at 10 µM", "setting": "OSR1", "value": 100, "unit": "%"},
      {"measurement": "remaining binding at 10 µM", "setting": "SGK2", "value": 100, "unit": "%"},
      {"measurement": "remaining binding at 10 µM", "setting": "PLK3", "value": 72, "unit": "%"},
      {"measurement": "remaining binding at 10 µM", "setting": "MEK6", "value": 87, "unit": "%"},
      {"measurement": "remaining binding at 10 µM", "setting": "BMPR2", "value": 72, "unit": "%"},
      {"measurement": "remaining binding at 10 µM", "setting": "PIK3CA", "value": 77, "unit": "%"},
      {"measurement": "remaining binding at 10 µM", "setting": "[1]", "value": 67, "unit": "%"},
      {"measurement": "remaining binding at 10 µM", "setting": "MAP3K1", "value": 85, "unit": "%"},
      {"measurement": "remaining binding at 10 µM", "setting": "AMPK-alpha1", "value": 76, "unit": "%"},
      {"measurement": "remaining binding at 10 µM", "setting": "KIT(D816H)", "value": 81, "unit": "%"},
      {"measurement": "remaining binding at 10 µM", "setting": "FER", "value": 75, "unit": "%"},
      {"measurement": "remaining binding at 10 µM", "setting": "LATS2", "value": 48, "unit": "%"},
      {"measurement": "remaining binding at 10 µM", "setting": "GRK7", "value": 80, "unit": "%"},
      {"measurement": "remaining binding at 10 µM", "setting": "PRKD2", "value": 100, "unit": "%"},
      {"measurement": "remaining binding at 10 µM", "setting": "GRK2", "value": 89, "unit": "%"},
      {"measurement": "remaining binding at 10 µM", "setting": "ZAP70", "value": 63, "unit": "%"},
      {"measurement": "remaining binding at 10 µM", "setting": "MYLK2", "value": 87, "unit": "%"},
      {"measurement": "remaining binding at 10 µM", "setting": "PIK3CA(E542K)", "value": 78, "unit": "%"},
      {"measurement": "remaining binding at 10 µM", "setting": "CAMK2G", "value": 99, "unit": "%"},
      {"measurement": "remaining binding at 10 µM", "setting": "ERBB3", "value": 79, "unit": "%"},
      {"measurement": "remaining binding at 10 µM", "setting": "NEK5", "value": 83, "unit": "%"},
      {"measurement": "remaining binding at 10 µM", "setting": "PIK3CB", "value": 89, "unit": "%"},
      {"measurement": "remaining binding at 10 µM", "setting": "CDKL1", "value": 56, "unit": "%"},
      {"measurement": "remaining binding at 10 µM", "setting": "SRPK2", "value": 66, "unit": "%"},
      {"measurement": "remaining binding at 10 µM", "setting": "MAP3K3", "value": 80, "unit": "%"},
      {"measurement": "remaining binding at 10 µM", "setting": "PRKR", "value": 54, "unit": "%"}
    ]}
  ]
}
